In ChEMBL document CHEMBL3885861, “Open TG-GATES”:

Organism: Rattus norvegicus
Assay: Open TG-GATES - Regimen: Single
Format: toxicity, organism-based, Sprague-Dawley
Parameters: regimen Single, gender Male, age 6 weeks
Details: in vivo, po, 0 mg/kg, route gavage, dose level Control; for Bas / Eos / Lym / MCHC / MCV / Mono / Neu / RBC / Ret / WBC: tissue Blood; for KIDNEY_L / KIDNEY_R / KIDNEY_TOTAL: tissue Kidney; for LIVER: tissue Liver; for ALP / AST / CRE / DBIL / GLC / IP / K / LDH / Na / PL / RALB / TBIL / TC / TP / gamma-GTP: tissue Plasma

`CS(=O)(=O)O.Cc1ccc(NC(=O)c2ccc(CN3CCN(C)CC3)cc2)cc1Nc1nccc(-c2cccnc2)n1` [IMATINIB MESYLATE] gave a Bas (3 h) of 0%, an Eos (3 h) of 0.6% and a Lym (3 h) of 77.4%. The MCHC (3 h) was 32.7%, the MCV (3 h) was 64.2 fL and the Mono (3 h) was 3%. For the same compound, the Neu (3 h) was 18.6%, the RBC (3 h) was 606.4 x10_4/ul and the Ret (3 h) was 9.4%. The WBC (3 h) was 98.6 x10_2/uL, the KIDNEY_L (3 h) was 0.9 g and the KIDNEY_R (3 h) was 0.9 g. For the same compound, the KIDNEY_TOTAL (3 h) was 1.7 g, the LIVER (3 h) was 9.6 g and the ALP (3 h) was 1737 IU/L. It also gave an AST (3 h) of 82.8 IU/L, a CRE (3 h) of 0.2 mg/dL and a DBIL (3 h) of 0.004 mg/dL. It also gave a GLC (3 h) of 184 mg/dL, an IP (3 h) of 8.3 mg/dL and a K (3 h) of 4.1 meq/L. The LDH (3 h) was 215.6 IU/L, the Na (3 h) was 143.2 meq/L and the PL (3 h) was 163.8 mg/dL. The RALB (3 h) was 4.1 g/dL, the TBIL (3 h) was 0.012 mg/dL and the TC (3 h) was 86.8 mg/dL. For the same compound, the TP (3 h) was 5.4 g/dL, the gamma-GTP (3 h) was 0.8 IU/L and the Bas (6 h) was 0%. It also gave an Eos (6 h) of 0.4%, a Lym (6 h) of 80.4% and an MCHC (6 h) of 33.1%. It also gave an MCV (6 h) of 63.3 fL, a Mono (6 h) of 3% and a Neu (6 h) of 15.2%. The RBC (6 h) was 615.4 x10_4/ul, the Ret (6 h) was 11.2% and the WBC (6 h) was 112.4 x10_2/uL. It also gave a KIDNEY_L (6 h) of 0.8 g, a KIDNEY_R (6 h) of 0.8 g and a KIDNEY_TOTAL (6 h) of 1.7 g. For the same compound, the LIVER (6 h) was 8.7 g, the ALP (6 h) was 1529.4 IU/L and the AST (6 h) was 72.4 IU/L. The CRE (6 h) was 0.2 mg/dL, the DBIL (6 h) was 0.006 mg/dL and the GLC (6 h) was 175.8 mg/dL. It also gave an IP (6 h) of 9.6 mg/dL, a K (6 h) of 4.2 meq/L and a Na (6 h) of 139.7 meq/L. For the same compound, the PL (6 h) was 152.4 mg/dL, the RALB (6 h) was 4 g/dL and the TBIL (6 h) was 0.022 mg/dL. For the same compound, the TC (6 h) was 86.4 mg/dL, the TP (6 h) was 5.5 g/dL and the gamma-GTP (6 h) was 0.9 IU/L. It also gave a Bas (9 h) of 0%, an Eos (9 h) of 0.8% and a Lym (9 h) of 76.4%. It also gave an MCHC (9 h) of 33.4%, an MCV (9 h) of 62.3 fL and a Mono (9 h) of 2.2%. For the same compound, the Neu (9 h) was 20.4%, the RBC (9 h) was 617 x10_4/ul and the Ret (9 h) was 9%. The WBC (9 h) was 86 x10_2/uL, the KIDNEY_L (9 h) was 0.9 g and the KIDNEY_R (9 h) was 0.9 g. The KIDNEY_TOTAL (9 h) was 1.8 g, the LIVER (9 h) was 8.1 g and the ALP (9 h) was 1372 IU/L. The AST (9 h) was 76.6 IU/L, the CRE (9 h) was 0.2 mg/dL and the DBIL (9 h) was 0.01 mg/dL. For the same compound, the GLC (9 h) was 170 mg/dL, the IP (9 h) was 9.5 mg/dL and the K (9 h) was 3.9 meq/L. The LDH (9 h) was 175 IU/L, the Na (9 h) was 140.3 meq/L and the PL (9 h) was 140.2 mg/dL. The RALB (9 h) was 4.1 g/dL, the TBIL (9 h) was 0.016 mg/dL and the TC (9 h) was 81.8 mg/dL. For the same compound, the TP (9 h) was 5.5 g/dL, the gamma-GTP (9 h) was 0.8 IU/L and the Bas (24 h) was 0%. For the same compound, the Eos (24 h) was 1%, the Lym (24 h) was 81.4% and the MCHC (24 h) was 32.9%. The MCV (24 h) was 65.5 fL, the Mono (24 h) was 2.4% and the Neu (24 h) was 14.6%. For the same compound, the RBC (24 h) was 607.4 x10_4/ul, the Ret (24 h) was 9.3% and the WBC (24 h) was 100.4 x10_2/uL. For the same compound, the KIDNEY_L (24 h) was 0.9 g, the KIDNEY_R (24 h) was 0.9 g and the KIDNEY_TOTAL (24 h) was 1.8 g. For the same compound, the LIVER (24 h) was 10 g, the ALP (24 h) was 1682.4 IU/L and the AST (24 h) was 68.2 IU/L. For the same compound, the CRE (24 h) was 0.2 mg/dL, the DBIL (24 h) was 0 mg/dL and the GLC (24 h) was 199.8 mg/dL. For the same compound, the IP (24 h) was 7.8 mg/dL, the K (24 h) was 4.2 meq/L and the LDH (24 h) was 195.2 IU/L. The Na (24 h) was 142.7 meq/L, the PL (24 h) was 149 mg/dL and the RALB (24 h) was 4.1 g/dL. The TBIL (24 h) was 0.004 mg/dL, the TC (24 h) was 75.2 mg/dL and the TP (24 h) was 5.8 g/dL. It also gave a gamma-GTP (24 h) of 1 IU/L.
